Tests used:
[1] = test system: P. falciparum 3D7, Dd2, Dd2Δexo; assay: In vitro evolution of compound-resistant lines (selection); type: cell-based, Plasmodium falciparum; conditions: for # of Resistant Strains Generated: resistant cultures out of three independent cultures; for EC50 fold shifts observed: selected parasites vs selection parent
From the text: While we found an overall lack of pre-existing resistance, analysing the onset of resistance was critical, as compounds resulting in rapid resistance are not ideal for clinical development. We therefore sought to create drug-resistant parasites using a variety of different selection methods. We implemented either a high-dose method or a ramp-up/pulse method for our in vitro selections. Two of the 50 compounds—MMV028895 and MMV665824—were removed from the selection study during experimentation. […] Out of the remaining 48 compounds, resistant parasites were obtained for 23 (Supplementary Data 1). As each selection was performed in triplicate with three independent cultures, we succeeded in generating a total of 66 resistant cultures. Parasites resistant to MMV026596 were not obtained despite 100 days of selection, but the cultures acquired hypersensitivity to mefloquine with a 10-fold reduction in EC50 compared with its parental line, 3D7. For the remaining 24 compounds, acquisition of resistant parasites was unsuccessful despite numerous attempts over an extensive period of time.
Based on the compound speed of action and lab specialty, selections were conducted using a high-pressure intermittent selection method, a step-wise selection method, or a constant selection method. For high-pressure selections, ∼1–2 × 10^9 parasites were treated at a concentration of 3–10 × EC50 until parasites could not be seen by microscopy (4–10 days). Following treatment, compound pressure was removed and cultures were allowed to recover. Once healthy parasites were seen and parasitemia reached ∼2%, compound pressure was reinstated. For step-wise selections, ∼1 × 10^8 parasites were treated at a starting concentration resulting in a reduced growth rate of 50%. Cultures were examined daily by microscopy, increasing compound concentration in increments of 5–10% as needed to maintain a 50% reduced growth rate. Selections were carried out until cultures achieved a reproducible EC50 fold shift of >3 × . Finally, constant selections were conducted in a similar manner to the high-pressure intermittent method with the exception that compound pressure was never removed. Following successful selection, cultures were cloned out using a limiting dilution method as previously described. Selections were terminated after 200 days if resistance could not be obtained.

[2] = test system: CYTbQi (cytb G33A, parent Dd2); assay: Cross-resistance EC50 assay, CYTbQi; type: cell-based; conditions: Plasmodium falciparum; SYBR green 72 hour assay; synchronized parasites; 384-well format; strain CYTbQi (Dd2 parent)
From the text: To evaluate potential overlapping activity against known antimalarial drug targets, we performed dose-response studies with each compound against our assembled set of drug-resistant lines and their corresponding parents, in an asexual blood stage proliferation assay (Table 1). Comparisons were made to the drug-sensitive strain 3D7 when a parent was unavailable (TM90C2A, W2 and Dd2). As laboratories conducted EC50 assays with different strains and protocols, all comparisons were made between assays from the same laboratory and under the same assay conditions. Compounds displaying >5-fold EC50 shifts relative to the parent or sensitive strain were flagged as having potentially non-novel targets. Average fold shifts per strain ranged from 0.82 to 2.34, with a median of 1.23 indicating there was not common resistance to any one resistant clone. No resistance patterns were observed when classifying the compounds based on chemical structure, but this was not surprising given the diversity of compounds chosen. On the other hand, given that these confirmed compounds were derived from larger unconfirmed hit lists to which some filtration criteria may have been applied (for example, elimination of obvious dihydrofolate reductase inhibitors[32]), some[10][11][12][13] pre-existing bias may exist in the set. […]
Alternatively, a SYBR Green-based proliferation approach was used for the 72-h assay, as previously described. Briefly, a culture of either synchronized or asynchronous parasitized RBCs (0.3% parasitemia and 4% haematocrit) in screening medium (identical to supplemented medium above except no serum was added) was exposed to serial drug dilutions. Plates were incubated at 37 °C and gassed with 93% N2, 4% CO2 and 3% O2 for 72 h. Following incubation, 10 × SYBR Green I (Invitrogen; supplied in 10,000 × concentration) in lysis buffer ([…], 5 mM EDTA, 0.16% Saponin wt per vol and 1.6% Triton X vol per vol) was added to the wells and the plates were incubated overnight at room temperature before plate reading. EC50 assays were repeated three times, taking the average EC50 value from each assay set, and removing any outliers using a single iteration of Grubbs' test, eliminating values with z-scores above the critical z-value (α=0.05). The raw EC50 values for synchronized parasites assayed in a 384-well format are listed in Supplementary Data 4. The raw EC50 values for asynchronous parasites assayed in a 96 or 1536-well format are listed in Supplementary Data 5.
EC50 values for each strain were compared with those of the corresponding parent strain to determine fold-shift changes and identify resistance. To minimize the cause variance between assays, all comparisons were conducted between strains assayed under identical conditions. A one-way ANOVA followed by a Dunnet's post-test was conducted in GraphPad Prism to identify significant changes between the parent and resistant strain.

Nc1ccc(-c2nc3cc(Oc4ccc(Oc5ccc6[nH]c(-c7ccc(N)cc7)nc6c5)cc4)ccc3[nH]2)cc1 [MMV011895]
Time Length to Obtain Mutants ([1]; in vitro selection): LONG (> 125 days)
# of Resistant Strains Generated [1]: 2/3
EC50 fold shifts observed [1]: 2-4x
EC50 [2]: 267 nM

COCCNCC(O)Cn1c2ccc(Cl)cc2c2cc(Cl)ccc21 (stereo not shown) [MMV019017]
Time Length to Obtain Mutants ([1]; in vitro selection): LONG (> 125 days)
# of Resistant Strains Generated [1]: 0/3
EC50 fold shifts observed [1]: no shift
EC50 [2]: 549 nM

COc1ccccc1CNC(=O)CCn1c(=O)[nH]c2ccsc2c1=O [MMV019066]
Time Length to Obtain Mutants ([1]; in vitro selection): SHORT (0-50 days)
# of Resistant Strains Generated [1]: 3/3
EC50 fold shifts observed [1]: >15x
EC50 [2]: 74 nM

Cl.c1ccc2c(NCCCCCCNc3c4c(nc5ccccc35)CCCC4)c3c(nc2c1)CCCC3 [MMV019555]
Time Length to Obtain Mutants ([1]; in vitro selection): LONG (> 125 days)
# of Resistant Strains Generated [1]: 0/3
EC50 fold shifts observed [1]: no shift
EC50 [2]: 227 nM

COc1ccc(N2CCN(C(CNC(=O)C3CCCCC3)c3ccc4c(c3)OCO4)CC2)cc1 (stereo not shown) [MMV019662]
Time Length to Obtain Mutants ([1]; in vitro selection): MODERATE (50-125 days)
# of Resistant Strains Generated [1]: 3/3
EC50 fold shifts observed [1]: 15x
EC50 [2]: 448 nM

COc1ccc(-c2nc(NC(=O)Cc3ccc4c(c3)OCCO4)sc2C)cc1 [MMV019719]
Time Length to Obtain Mutants ([1]; in vitro selection): MODERATE (50-125 days)
# of Resistant Strains Generated [1]: 3/3
EC50 fold shifts observed [1]: 3x
EC50 [2]: 245 nM

Cc1ccc(Oc2ncccc2C(=O)Cc2cccc3cccnc23)c(C)c1 [MMV020746]
Time Length to Obtain Mutants ([1]; in vitro selection): SHORT (0-50 days)
# of Resistant Strains Generated [1]: 3/3
EC50 fold shifts observed [1]: 6-19x
EC50 [2]: 268 nM

COc1cc(-c2nc(-c3ccccc3)c(-c3ccccc3)[nH]2)cc(OC)c1O [MMV020750]
Time Length to Obtain Mutants ([1]; in vitro selection): LONG (> 125 days)
# of Resistant Strains Generated [1]: 0/3
EC50 fold shifts observed [1]: no shift
EC50 [2]: 927 nM

CCCCCCCN(Cc1ccc(OC(C)(C)C(=O)OCC)cc1)C(=O)Nc1ccc(Cl)cc1OCC [MMV021735]
Time Length to Obtain Mutants ([1]; in vitro selection): LONG (> 125 days)
# of Resistant Strains Generated [1]: 0/3
EC50 fold shifts observed [1]: no shift
EC50 [2]: 223 nM

CN(C)Cc1ccc(-c2cc3c(-c4ccc(CN(C)C)cc4)ccnc3[nH]2)cc1.O=C(O)C(F)(F)F [MMV022224]
Time Length to Obtain Mutants ([1]; in vitro selection): LONG (> 125 days)
# of Resistant Strains Generated [1]: 0/3
EC50 fold shifts observed [1]: no shift
EC50 [2]: 327 nM

Nc1ncc(-c2cn[nH]c2)cc1-c1nc2ccc(F)cc2[nH]1 [MMV023367]
Time Length to Obtain Mutants ([1]; in vitro selection): LONG (> 125 days)
# of Resistant Strains Generated [1]: 3/3
EC50 fold shifts observed [1]: 3x
EC50 [2]: 626 nM

CN(C)S(=O)(=O)c1cc(-c2ccc3nccc(-c4cccc(S(N)(=O)=O)c4)c3c2)cnc1N [MMV024038]
Time Length to Obtain Mutants ([1]; in vitro selection): SHORT (0-50 days)
# of Resistant Strains Generated [1]: 0/3
EC50 fold shifts observed [1]: no shift
EC50 [2]: 164 nM

Cc1ccc(S(=O)(=O)n2cc(-c3ccnc(N)c3)c3cc(Br)cnc32)cc1 [MMV024114]
Time Length to Obtain Mutants ([1]; in vitro selection): LONG (> 125 days)
# of Resistant Strains Generated [1]: 3/3
EC50 fold shifts observed [1]: 2x
EC50 [2]: 1380 nM

CNCc1ccc2nc(-c3coc(Cc4cc(Cl)ccc4OCC(C)C)n3)[nH]c2c1.Cl.Cl [MMV026596]
Time Length to Obtain Mutants ([1]; in vitro selection): LONG (> 125 days)
acquisition of resistant parasites ([1]; in vitro selection): not obtained
# of Resistant Strains Generated [1]: 0/3
EC50 fold shifts observed [1]: no shift
EC50 [2]: 431 nM

CN(C)CCCN(C)C(=O)C1Cc2cc(-c3ccccc3)ccc2N1S(=O)(=O)c1ccccc1 (stereo not shown) [MMV028895]
EC50 [2]: 740 nM

— paper PMC4912613, “A broad analysis of resistance development in the malaria parasite” (Nature Communications, 2016)
